Several values for one entry are separate records, joined by “and”; a condition that tells them apart may be missing. Identical values can stand only once. Entries after “also recorded” stand apart in the source; their conditions may differ.
Assays:
[1] = tested on: Posterior Pituitary GABAA Receptor; test: GABA-gated Cl- single-channel currents in outside-out patches excised from posterior pituitary nerve terminals; assay type: cell-based
Experimental: (§1) Measurements were made in nerve terminals for responses to GABA alone or GABA+steroid. The ratios were computed as (GABA+steroid)/GABA, and the geometric means were computed for the indicated number of ratios. The * indicates statistical significance at the level of P<0.05. […] The single-channel activity was determined from Po using all-points histograms such as those shown in FIGS. 4B and 4D, as described in METHODS. The GABA concentration was […] for the first two columns and 1 mM for the last column.

[2] = tested on: Posterior Pituitary GABAA Receptor; test: Whole-terminal patch clamp recording of GABA responses in posterior pituitary nerve terminals; assay type: cell-based; settings: for Effect on GABA-activated Cl- current / GABAA receptor responses of nerve terminals (in words): posterior pituitary nerve terminals
Experimental: as §1

[3] = Treatment and prevention of hypertension in borderline hypertensive patients (Example 2); assay type: in vivo, human; settings: daily high physiological dosage, after one year, versus placebo; expected
Text: An experiment is run with study group of patients who are borderline hypertensive. Half of the group is given daily a high physiological dosage of allepregnanolone. The remaining patients are placed on placebo.

[4] = Oral contraceptive containing neuroactive steroid in premenopausal women (Example 3); assay type: in vivo, human; settings: progesterone containing oral contraceptive with neuroactive steroid, two years; expected
Text: An experiment is run with a study group of premenopausal women. Half of the group is placed on a progesterone containing oral contraceptive which also contains a neuroactive steroid such as allepregnanolone. The other half of the study group is given the same oral contraceptive but without neuroactive steroid. The study is run for two years and the group is regularly evaluated for its cardiovascular status.

[5] = tested on: Posterior Pituitary GABAA Receptor; test: Desensitization of the GABAA receptor during sustained GABA application, whole-terminal recordings; assay type: cell-based; parameters: Time constant of desensitization, GABA with steroid: dose or concentration left out as unconfirmed; settings: for Desensitization Time-Constant Ratio: (GABA+steroid)/GABA, geometric mean, allopregnanolone 100 nM, estradiol-17β 100 nM; for Time constant of desensitization, GABA with steroid: sustained application of GABA in the presence of steroid, same terminals as controls
Text: FIGS. 3A and 3B are whole terminal recordings showing the GABA desensitizing effect of certain neuroactive steroids on the GABAA receptor. […] 3B illustrates the effect of allopregnanolone.
Sustained application of GABA desensitized the receptor with a time constant of 9.5±0.5 sec (n=3). […] Similar results were obtained with allopregnanolone; the average time constant for desensitization was 9.1±1.8 sec with GABA alone and 10.2±1.7 sec (n=3) with GABA and allopregnanolone.
as §1

CC(=O)[C@H]1CC[C@H]2[C@@H]3CC[C@H]4C[C@H](O)CC[C@]4(C)[C@H]3CC[C@]12C [Allopregnanolone, 3α-hydroxy-5α-pregnan-20-one]
Effect on GABA-activated single-channel activity (in words) [1]: more channel activity than GABA alone; also recorded: clearly increased
Effect on GABA-activated Cl- current / GABAA receptor responses of nerve terminals (in words) [2]: potentiated; also recorded: strongly enhanced
Blood pressure relative to control [3]: significantly lower blood pressure relative to control
Cardiovascular status compared to control [4]: significantly better cardiovascular status compared to control
Desensitization Time-Constant Ratio [5]: 1.14
Time constant of desensitization, GABA with steroid [5]: 10.2 ± 1.7 s

CC(=O)[C@H]1CC[C@H]2[C@@H]3CC[C@H]4C[C@H](O)CC[C@]4(C)[C@H]3C(=O)C[C@]12C [Alphaxalone, alphaxalone]
Time constant of desensitization, GABA with steroid [5]: 8.9 ± 0.5 s

C[C@]12CC[C@@H]3c4ccc(O)cc4CC[C@H]3[C@@H]1CC[C@@H]2O [Estradiol-17β]
Effect on GABA-activated single-channel activity (in words) [1]: went down slightly
GABA responses as % of controls ([2]; estradiol-17β 100 nM, n=6): 78%
Effect on GABA-activated Cl- current / GABAA receptor responses of nerve terminals (in words) [2]: weak inhibitory effect
Desensitization Time-Constant Ratio [5]: 0.90
Effect on rate of desensitization (in words) ([5]; sustained GABA application): failed to alter the rate of desensitization
Time constant of desensitization, GABA with steroid [5]: 7.9 ± 1.9 s

NCCCC(=O)O [GABA]
Time constant of desensitization, GABA alone ([5]; sustained application of GABA alone (controls of the alphaxalone, allopregnanolone and estradiol-17β experiments, in this order)): 9.5 ± 0.5 s and 9.1 ± 1.8 s and 9.2 ± 0.2 s

Source: patent US5763431A, “Method for regulating neuropeptide hormone secretion” (priority 1996, dated 1998)
